Measurements reported in patent publication US8436159B2, “Glyphosate resistant class I 5-endolpyruvylshikimate-3-phosphate synthase (EPSPS)” (Monsanto Technology LLC, priority 2003, dated 2013).

Target: T1, maize (Zea mays) class I EPSPS, wild type (WT), pMON70461, DNA SEQ ID NO:3 (Zea mays, UniProt O24566)
T1 construct: pMON70461
T1 sequence (O24566 with tags, fused parts or gaps): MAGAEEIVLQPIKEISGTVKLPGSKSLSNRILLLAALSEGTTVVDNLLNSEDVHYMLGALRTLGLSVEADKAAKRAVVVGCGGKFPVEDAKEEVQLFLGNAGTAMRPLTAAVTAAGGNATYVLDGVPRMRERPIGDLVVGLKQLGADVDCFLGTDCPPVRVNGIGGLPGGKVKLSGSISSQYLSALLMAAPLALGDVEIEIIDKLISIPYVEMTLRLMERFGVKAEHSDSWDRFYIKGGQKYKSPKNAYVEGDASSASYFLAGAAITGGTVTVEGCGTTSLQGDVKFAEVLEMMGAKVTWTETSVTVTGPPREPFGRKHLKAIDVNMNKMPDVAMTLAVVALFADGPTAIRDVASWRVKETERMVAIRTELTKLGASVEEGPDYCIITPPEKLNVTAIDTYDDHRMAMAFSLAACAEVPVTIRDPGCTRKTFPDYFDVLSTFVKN
Experiment: EPSPS steady-state kinetics, wild-type maize EPSPS
Format: biochemical
Experimental: The wild type and variant EPSPS coding sequences were cloned into a pET-19b base vector (Novagen, Madison, Wis.). The plant (maize) class I EPSPS variants so created were assigned pMON plasmid numbers (Table 2). The variant EPSPS proteins were purified from the E. coli host using the protocols outlined in the pET system manual, 9th edition (Novagen) or by the following method. A single colony or a few microliters from a glycerol stock was inoculated into 4 mL LB medium containing 0.1 mg/mL carbenicillin antibiotic. The culture was incubated with shaking at 37 C for 4 hours. The cultures were stored at 4° C. overnight. The following morning, 1 mL of the overnight culture was used to inoculate 100 mL of fresh LB medium containing 0.1 mg/mL carbenicillin. The cultures were incubated with shaking at 37 C for 4-5 hours, then the cultures were placed at 4° C. for 5-10 minutes. The cultures were then induced with IPTG (1 mM final concentration) and incubated with shaking at 30 C for 4 hours or 20° C. overnight. The cells were harvested by centrifugation at 7000 rpm for 20 minutes at 4° C. The supernatant was removed and the cells were frozen at −70° C. until further use. The proteins were extracted by resuspending the cell pellet in BugBuster reagent (Novagen) using 5 mL reagent per gram of cells. Benzonase (125 Units) was added to the resuspension and the cell suspension was then incubated on a rotating mixer for 20 minutes at room temperature. The cell debris was removed by centrifugation at 10,000 rpm for 20 minutes at room temperature. The supernatant was passed through a 0.45 μm syringe-end filter and transferred to a fresh tube. A pre-packed columns containing 1.25 mL of His-Bind resin was equilibrated with 10 mL of 5 mM imidazole, 0.5 M NaCl, 20 mM Tris-HCl pH 7.9 (1× Binding Buffer). The column was then loaded with the prepared cell extract. After the cell extract had drained, the column was then washed with 10 mL of 1× Binding Buffer, followed with 10 mL of 60 mM imidazole, 0.5 M NaCl, 20 mM Tris-HCl pH 7.9 (1× Wash Buffer). […]

`O=C(O)CNCP(=O)(O)O` [glyphosate, N-phosphonomethylglycine] was tested, and the Ki was 500 ± 60 nM.
